Test results: patent US20240270762A1, “PENICILLIN-BINDING PROTEIN INHIBITORS” (priority 2021, published 2024)
pIC50: −log10 of the molar value. In brackets after ≈: the same amount, converted by molar mass.

Legend:
[1] = system: N. gonorrhoeae WHO M; test: Liquid broth MIC in Fastidious broth; conditions: Neisseria gonorrhoeae, read-out: Minimum Inhibitory Concentration (MIC), N. gonorrhoeae WHO M
[2] = system: K. pneumoniae 848844; test: microbe, parasite or virus in culture; assay type: cell-based; conditions: Klebsiella pneumoniae, 848844, read-out: MIC K. pneumoniae 848844
[3] = system: N. gonorrhoeae WHO G; test: Liquid broth MIC in Fastidious broth; conditions: Neisseria gonorrhoeae, read-out: Minimum Inhibitory Concentration (MIC), N. gonorrhoeae WHO G
[4] = system: P. aeruginosa (ΔmexAB-oprM); test: Broth microdilution MIC in CAMHB; assay type: cell-based; conditions: Pseudomonas aeruginosa; read-out: MIC P. aeruginosa ΔmexAB-oprM
[5] = system: N. gonorrhoeae WHO Q; test: Liquid broth MIC in Fastidious broth; conditions: Neisseria gonorrhoeae, read-out: Minimum Inhibitory Concentration (MIC), N. gonorrhoeae WHO Q
[6] = system: E. coli ATCC 25922; test: microbe, parasite or virus in culture; assay type: cell-based; conditions: Escherichia coli, ATCC25922, read-out: MIC E. coli 25922
[7] = system: K. pneumoniae SI-117; test: microbe, parasite or virus in culture; assay type: cell-based; conditions: Klebsiella pneumoniae, SI117, read-out: MIC K. pneumoniae SI-117
[8] = system: P. aeruginosa ATCC 35151; test: microbe, parasite or virus in culture; assay type: cell-based; conditions: Pseudomonas aeruginosa, ATCC35151, read-out: MIC P. aeruginosa ATCC 35151
[9] = system: E. coli AG100A; test: Broth microdilution MIC in CAMHB; assay type: cell-based; conditions: Escherichia coli, read-out: MIC E. coli AG100A
[10] = target: T1, PBP3 from Pseudomonas aeruginosa (PAO1) (Pseudomonas aeruginosa, UniProt G3XD46); test: Bocillin-FL fluorescence polarization competition binding, P. aeruginosa PBP3; conditions: Binding affinity to P. aeruginosa PBP3; fluorescence polarization competition binding assay using Bocillin-FL; read-out: P. aeruginosa PBP3 Potency
T1 construct: made in house
T1 sequence (G3XD46 whole entry): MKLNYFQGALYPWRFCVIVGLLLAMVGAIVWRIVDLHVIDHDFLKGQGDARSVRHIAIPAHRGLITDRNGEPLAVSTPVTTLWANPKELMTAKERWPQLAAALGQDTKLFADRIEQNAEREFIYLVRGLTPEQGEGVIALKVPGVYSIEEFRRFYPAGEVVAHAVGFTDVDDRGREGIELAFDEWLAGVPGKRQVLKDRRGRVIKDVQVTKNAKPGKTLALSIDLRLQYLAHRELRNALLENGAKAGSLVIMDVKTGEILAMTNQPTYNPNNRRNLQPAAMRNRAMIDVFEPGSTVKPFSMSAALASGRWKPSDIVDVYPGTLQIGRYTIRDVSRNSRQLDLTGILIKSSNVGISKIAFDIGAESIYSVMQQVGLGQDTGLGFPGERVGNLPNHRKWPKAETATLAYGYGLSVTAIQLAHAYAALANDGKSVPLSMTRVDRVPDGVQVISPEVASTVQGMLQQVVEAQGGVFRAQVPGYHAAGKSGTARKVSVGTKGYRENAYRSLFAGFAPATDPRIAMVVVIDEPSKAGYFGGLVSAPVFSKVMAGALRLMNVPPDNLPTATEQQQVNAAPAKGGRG
In short: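 Purified PBPs pre-incubated with inhibitor (E. coli PBP3 1.5 μM, 30 min; P. aeruginosa PBP3 0.75 μM, A. baumannii PBP1a 1 μM and PBP3 0.2 μM, 15 min), then Bocillin-FL 0.1 μM (0.05 μM for PBP1a) added; FP read up to 60 min. EC50 = concentration halving bound Bocillin-FL.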

[11] = system: N. gonorrhoeae WHO X; test: Liquid broth MIC in Fastidious broth; conditions: Neisseria gonorrhoeae, read-out: Minimum Inhibitory Concentration (MIC), N. gonorrhoeae WHO X
[12] = system: E. coli D22; test: microbe, parasite or virus in culture; assay type: cell-based; conditions: Escherichia coli, D22, read-out: MIC E. coli D22
[13] = system: N. gonorrhoeae FA1090; test: Liquid broth MIC in Fastidious broth; conditions: Neisseria gonorrhoeae, FA1090, read-out: Minimum Inhibitory Concentration (MIC), N. gonorrhoeae FA 1090
[14] = system: N. gonorrhoeae CDC-0197; test: Liquid broth MIC in Fastidious broth; conditions: Neisseria gonorrhoeae, CDC0197, read-out: Minimum Inhibitory Concentration (MIC), N. gonorrhoeae CDC-0197
[15] = system: N. gonorrhoeae WHO K; test: Liquid broth MIC in Fastidious broth; conditions: Neisseria gonorrhoeae, read-out: Minimum Inhibitory Concentration (MIC), N. gonorrhoeae WHO K
[16] = system: N. gonorrhoeae ATCC 49226; test: Liquid broth MIC in Fastidious broth; conditions: Neisseria gonorrhoeae, ATCC49226, read-out: Minimum Inhibitory Concentration (MIC), N. gonorrhoeae ATCC 49226
Procedure: Additional antibacterial testing of the series was performed in 8 reference strains of N. gonorrhoeae (ATCC 49226, FA1090, MS 11, WHO G, WHO L, WHO M, WHO K, WHO X, WHO Z, WHO Q, CDC-0197). ATCC 49226, FA1090, MS11, WHO G, WHO L, and WHO M produce wild type or wild-type like PBP2. WHO K, WHO X, WHO Z, WHO Q, and CDC-0197 produce mosaic PBP2. Liquid broth-based assays were used for antibacterial testing of PBP inhibitors in Neisseria gonorrhoeae. Briefly, cryo-preserved bacterial cultures of clinical strains were streaked for isolation on Chocolate Agar (72 g/L (2×) GC Agar Base (BD #228950) and 2% (2×) Hemoglobin was autoclaved at 121° C. for 20 minutes to sterilize. Once cooled to ˜50° C. the 2×GC Agar Base and 2× Hemoglobin solutions are combined and 1% IsoVitaleX Enrichment (BD #211876) was added to the solution). Strains were incubated at 36° C. and 5% CO2 to allow growth of colonies, 24 hours before inoculum preparation. 2-fold serial dilutions of test compounds were conducted in a 96 well plate with a final volume of 75 μL per well at 2-fold the final desired concentration in Fastidious broth (Remel #R07664). For preparation of assay inoculum, a direct suspension was prepared by aseptically swabbing 10-15 colonies from agar plates into culture tubes containing 2 mL of fresh sterile saline. After the dilution plates were set up, direct suspensions were then diluted in a cuvette containing sterile saline and the optical density was measured at 600 nm. Inocula were diluted such that 75 μL of this culture in Fastidious broth results in a starting bacterial concentration of 5×10^5 CFU/mL when added to the dilution plates. The plates were incubated for ˜24 hours at 36° C. and 5% CO2.

Row | Structure (SMILES) | MIC [1] | MIC [2] | MIC [3] | MIC [4] | MIC [5] | MIC [6] | MIC [7] | MIC [8] | MIC [9] | pIC50 [10] | MIC [11] | MIC [12] | MIC [13] | MIC [14] | MIC [15] | MIC [16]
1 | O=C(O)c1cccc2c1OB(O)[C@@H](NC(=O)C(NC(=O)c1cnc[nH]c1=O)c1ccc(P(=O)(O)O)cc1)C2 (stereo partly drawn) [Example 176, (3R)-2-hydroxy-3-(2-(6-oxo-1,6-dihydropyrimidine-5-carboxamido)-2-(4-phosphonophenyl)acetamido)-3,4-dihydro-2H-benzo[e][1,2]oxaborinine-8-carboxylic acid] | 1 to 2 µg/mL (≈ 1.84 to 3.69 µM) | > 128 µg/mL | 4 to 8 µg/mL (≈ 7.38 to 14.8 µM) | 32 to 64 µg/mL (≈ 59 to 118 µM) | 16 to 32 µg/mL (≈ 29.5 to 59 µM) | > 128 µg/mL | > 128 µg/mL | 2 to 4 µg/mL (≈ 3.69 to 7.38 µM) | > 128 µg/mL | > 5.00 | 16 to 32 µg/mL (≈ 29.5 to 59 µM) | > 128 µg/mL | 1 to 2 µg/mL (≈ 1.84 to 3.69 µM) | 16 to 32 µg/mL (≈ 29.5 to 59 µM) | 16 to 32 µg/mL (≈ 29.5 to 59 µM) | 4 to 8 µg/mL (≈ 7.38 to 14.8 µM)
2 | N#Cc1ccnc(C(=O)NC(C(=O)N[C@H]2Cc3cccc(C(=O)O)c3OB2O)c2ccc(P(=O)(O)O)cc2)c1 (stereo partly drawn) [Example 179, (3R)-3-(2-(4-cyanopicolinamido)-2-(4-phosphonophenyl)acetamido)-2-hydroxy-3,4-dihydro-2H-benzo[e][1,2]oxaborinine-8-carboxylic acid] | 4 to 8 µg/mL (≈ 7.27 to 14.5 µM) | > 128 µg/mL | 16 to 32 µg/mL (≈ 29.1 to 58.2 µM) | > 128 µg/mL | 16 to 32 µg/mL (≈ 29.1 to 58.2 µM) | > 128 µg/mL | > 128 µg/mL | 2 to 4 µg/mL (≈ 3.63 to 7.27 µM) | > 128 µg/mL | > 5.00 | 16 to 32 µg/mL (≈ 29.1 to 58.2 µM) | 32 to 64 µg/mL (≈ 58.2 to 116 µM) | 1 to 2 µg/mL (≈ 1.82 to 3.63 µM) | 16 to 32 µg/mL (≈ 29.1 to 58.2 µM) | 16 to 32 µg/mL (≈ 29.1 to 58.2 µM) | 16 to 32 µg/mL (≈ 29.1 to 58.2 µM)
3 | N#Cc1cccc(C(=O)N[C@@H](C(=O)N[C@H]2Cc3cccc(C(=O)O)c3OB2O)c2ccc(P(=O)(O)O)cc2)n1 [Example 180, (R)-3-((R)-2-(6-cyanopicolinamido)-2-(4-phosphonophenyl)acetamido)-2-hydroxy-3,4-dihydro-2H-benzo[e][1,2]oxaborinine-8-carboxylic acid] | < 1 µg/mL | > 128 µg/mL | < 1 µg/mL | 32 to 64 µg/mL (≈ 58.2 to 116 µM) | 1 to 2 µg/mL (≈ 1.82 to 3.63 µM) | > 128 µg/mL | > 128 µg/mL | 2 to 4 µg/mL (≈ 3.63 to 7.27 µM) | 8 to 16 µg/mL (≈ 14.5 to 29.1 µM) | > 5.00 | 4 to 8 µg/mL (≈ 7.27 to 14.5 µM) | 2 to 4 µg/mL (≈ 3.63 to 7.27 µM) | < 1 µg/mL | < 1 µg/mL | 1 to 2 µg/mL (≈ 1.82 to 3.63 µM) | < 1 µg/mL
4 | O=C(O)c1cccc2c1OB(O)[C@@H](NC(=O)C(NC(=O)c1ncccc1Cl)c1ccc(P(=O)(O)O)cc1)C2 (stereo partly drawn) [Example 183, (3R)-3-(2-(3-chloropicolinamido)-2-(4-phosphonophenyl)acetamido)-2-hydroxy-3,4-dihydro-2H-benzo[e][1,2]oxaborinine-8-carboxylic acid] | 1 to 2 µg/mL (≈ 1.79 to 3.57 µM) | > 128 µg/mL | 4 to 8 µg/mL (≈ 7.15 to 14.3 µM) | > 128 µg/mL | 16 to 32 µg/mL (≈ 28.6 to 57.2 µM) | > 128 µg/mL | > 128 µg/mL | 8 to 16 µg/mL (≈ 14.3 to 28.6 µM) | > 128 µg/mL | > 5.00 | 16 to 32 µg/mL (≈ 28.6 to 57.2 µM) | 32 to 64 µg/mL (≈ 57.2 to 114 µM) | 1 to 2 µg/mL (≈ 1.79 to 3.57 µM) | 16 to 32 µg/mL (≈ 28.6 to 57.2 µM) | 16 to 32 µg/mL (≈ 28.6 to 57.2 µM) | 4 to 8 µg/mL (≈ 7.15 to 14.3 µM)
5 | O=C(NC(C(=O)N[C@H]1Cc2cccc(C(=O)O)c2OB1O)c1ccc(P(=O)(O)O)cc1)c1ccc(Cl)cn1 (stereo partly drawn) [Example 184, (3R)-3-(2-(5-chloropicolinamido)-2-(4-phosphonophenyl)acetamido)-2-hydroxy-3,4-dihydro-2H-benzo[e][1,2]oxaborinine-8-carboxylic acid] | < 1 µg/mL | > 128 µg/mL | < 1 µg/mL | > 128 µg/mL | 1 to 2 µg/mL (≈ 1.79 to 3.57 µM) | > 128 µg/mL | > 128 µg/mL | 2 to 4 µg/mL (≈ 3.57 to 7.15 µM) | 32 to 64 µg/mL (≈ 57.2 to 114 µM) | > 5.00 | 4 to 8 µg/mL (≈ 7.15 to 14.3 µM) | 8 to 16 µg/mL (≈ 14.3 to 28.6 µM) | < 1 µg/mL | < 1 µg/mL | 1 to 2 µg/mL (≈ 1.79 to 3.57 µM) | < 1 µg/mL
6 | NC(=O)c1ccc(C(=O)NC(C(=O)N[C@H]2Cc3cccc(C(=O)O)c3OB2O)c2ccc(P(=O)(O)O)cc2)nc1 (stereo partly drawn) [Example 188, (3R)-3-(2-(5-carbamoylpicolinamido)-2-(4-phosphonophenyl)acetamido)-2-hydroxy-3,4-dihydro-2H-benzo[e][1,2]oxaborinine-8-carboxylic acid] | < 1 µg/mL | > 128 µg/mL | < 1 µg/mL | 32 to 64 µg/mL (≈ 56.3 to 113 µM) | 1 to 2 µg/mL (≈ 1.76 to 3.52 µM) | > 128 µg/mL | > 128 µg/mL | 8 to 16 µg/mL (≈ 14.1 to 28.2 µM) | > 128 µg/mL | > 5.00 | 4 to 8 µg/mL (≈ 7.04 to 14.1 µM) | 8 to 16 µg/mL (≈ 14.1 to 28.2 µM) | < 1 µg/mL | 1 to 2 µg/mL (≈ 1.76 to 3.52 µM) | 1 to 2 µg/mL (≈ 1.76 to 3.52 µM) | < 1 µg/mL
7 | CCN1CCN(C(=O)NC(C(=O)N[C@H]2Cc3cccc(C(=O)O)c3OB2O)c2ccc(S(=O)(=O)O)cc2)C(=O)C1=O (stereo partly drawn) [Example 189, (3R)-3-(2-(4-ethyl-2,3-dioxopiperazine-1-carboxamido)-2-(4-sulfophenyl)acetamido)-2-hydroxy-3,4-dihydro-2H-benzo[e][1,2]oxaborinine-8-carboxylic acid] | < 1 µg/mL | > 128 µg/mL | < 1 µg/mL | 8 to 16 µg/mL (≈ 13.6 to 27.2 µM) | 1 to 2 µg/mL (≈ 1.7 to 3.4 µM) | > 128 µg/mL | > 128 µg/mL | < 1 µg/mL | 8 to 16 µg/mL (≈ 13.6 to 27.2 µM) | > 5.00 | 4 to 8 µg/mL (≈ 6.8 to 13.6 µM) | 2 to 4 µg/mL (≈ 3.4 to 6.8 µM) | < 1 µg/mL | 1 to 2 µg/mL (≈ 1.7 to 3.4 µM) | 1 to 2 µg/mL (≈ 1.7 to 3.4 µM) | < 1 µg/mL
